# In patent EP1144365B1 (TANABE SEIYAKU CO., LTD., priority 1998, dated 2000):
# Experiments:
# α4β1 integrin = target: T1, α4β1 integrin (Homo sapiens, UniProt P05556+P13612); test: Jurkat-Endothelial Cell Adhesion Assay (Jurkat EC); type: cell-based; conditions: Jurkat cell adhesion to IL-1 stimulated endothelial cell monolayers
# T1 construct: a T-cell line, Jurkat, known to express the α4β1 integrin; host or cells: Jurkat T-cell line
# Method: The following assay established the activity of the present compounds in inhibiting β1-mediated cell adhesion in a representative in vitro system. This assay measures the adhesive interactions of a T-cell line, Jurkat, known to express the α4β1 integrin, to endothelial monolayers in the presence of test compounds. The test compounds were added in increasing concentrations to T-cells and then the T-cell compound mixture was added to IL-1 stimulated endothelial cell monolayers. The plates were incubated, washed and the percentage of attached cells was quantitated.
# Human umbilical vein endothelial cells were purchased from Clonetics (San Diego, CA.) at passage number 2. The cells were grown on 0.5% porcine skin gelatin pre-coated flasks (Sigma, St. Louis MO.) in EGM-UV media (Clonetics, San Diego, CA) supplemented with 10% fetal bovine serum. Cells are refed every 2-3 days reaching confluence by day 4 to 6. […] The endothelial cells are not used following passage 6.
# The T-cell line Jurkat was obtained from American Type Tissue Culture Collection (Rockville, MD) and the cells were cultured in RPMI containing 10 % fetal calf serum. The cells were washed twice in Hank's Balanced Salt Solution (HBSS) and resuspended in Dulbecco's Minimal Eagle's Media (DMEM) containing 2.5 mg/ml Human Serum Albumin (HSA). Jurkat cells (1x10^6 cells/ml) were stained with 10 ng/ml BCECF-AM (Molecular Probes, Eugene, OR)) in HBSS without phenol red. The cells were loaded with BCECF for 60 minutes in the dark at 37°C, washed 2 times, and resuspended in DMEM-HSA solution.
# Confluent endothelial monolayers, grown in 96-well tissue culture plates, were stimulated for 4 hr. at 37 °C with 0.1 ng/ml (∼50 U/ml) recombinant IL-1 (Amgen, Thousand Oaks, CA). Following this incubation, the monolayers were washed twice with HBSS and 0.1 ml of DMEM-HSA solution was added. Jurkat cells (5 x 10^5 cells) were combined with the appropriate concentration of the test compound and 0.1 ml of the Jurkat cell-compound mixture was added to the endothelial cell monolayers. Generally, 100, 20, 5 and 1.25 µM compound concentrations were tested. […] Following this incubation, the monolayers were washed twice with PBS containing 1 mM calcium chloride and 1 mM magnesium chloride' and the plates were read using a Millipore Cytofluor 2300 (Marlboro, MA.). Fluorescence in each well was measured as Arbitrary Fluorescence Units and percent adhesion in the absence of compound was adjusted to 100% and the % adhesion in the presence of compound was calculated. Monolayers were also fixed in 3% paraformaldehyde and evaluated microscopically to verify the adhesion. This procedure is a modification of a previously published method (Cardarelli et al., J. Biol. Chem. 269:18668-18673 (1994)).
# α4β1 = target: T2, α4β1 (Homo sapiens, UniProt P05556+P13612); test: Jurkat-CS-1 assay; type: cell-based; conditions: Jurkat cell adhesion to immobilized CS-1 derived peptide
# T2 construct: 100 µl of Jurkat cells (2.5 x 10^6 cells/ml) in DMEM plus BSA; host or cells: Jurkat T-cell line
# Method: The CS-1 derived peptide, CLHPGEILDVPST, and the scrambled control peptide, CLHGPIELVSDPT, were synthesized on a Beckman 990 synthesizer using t-Boc methodology. The peptides were immobilized onto microtiter plates using the heterobifunctional crosslinker 3-(2-pyridyldithio)propionic acid N-hydroxysuccinimide ester (SPDP) as reported by Pierschbacher et al., Proc. Natl. Acad. USA, 80:1224-1227 (1983). Microtiter plates were coated with 20 µg/ml HSA for 2 hr. at room temperature, washed once with PBS and derivatized with 10 µg/ml SPDP for 1 hr. After washing, 100 µl of a 100 µg/ml cysteine containing peptide solution which had been recently dissolved was added to the wells and allowed to crosslink to the plates overnight at 4 °C. Unbound peptide was removed from plates by washing with PBS. To block non-reacted sites, the plates are coated with 100 µl of a 2.5 mg/ml BSA solution in PBS for 1 hr. at 37 °C. 100 µl of Jurkat cells (2.5 x 10^6 cells/ml) in DMEM plus BSA (2.5 mg/ml) was mixed with an appropriate concentration of the compound to be tested and the mixture was added to peptide coated dishes and incubated for 1 hr. at 37 °C. Generally 100, 20, 5 and 1.25 µM concentrations of the compound were tested.
# Following this incubation the plates were washed once with PBS and the attached cells were fixed with 3% paraformaldehyde in PBS and stained with 0.5% toluidine blue in 3.7% formaldehyde. The cells were stained overnight at room temperature and the optical density at 590 nm of toluidine blue stained cells was determined using a vertical pathway spectrophotometer to quantitate attachment (VMAX Kinetic Microplate Reader, Molecular Devices, Menlo Park, CA). This procedure is a modification of a previously published method (Cardarelli et al, J. Biol. Chem., 269:18668-18673 (1994) and Cardarelli et al, Proc. Natl. Acad. Sci. USA, 83:2647-2651 (1986)).
# T2 sequence (P13612 34-1032): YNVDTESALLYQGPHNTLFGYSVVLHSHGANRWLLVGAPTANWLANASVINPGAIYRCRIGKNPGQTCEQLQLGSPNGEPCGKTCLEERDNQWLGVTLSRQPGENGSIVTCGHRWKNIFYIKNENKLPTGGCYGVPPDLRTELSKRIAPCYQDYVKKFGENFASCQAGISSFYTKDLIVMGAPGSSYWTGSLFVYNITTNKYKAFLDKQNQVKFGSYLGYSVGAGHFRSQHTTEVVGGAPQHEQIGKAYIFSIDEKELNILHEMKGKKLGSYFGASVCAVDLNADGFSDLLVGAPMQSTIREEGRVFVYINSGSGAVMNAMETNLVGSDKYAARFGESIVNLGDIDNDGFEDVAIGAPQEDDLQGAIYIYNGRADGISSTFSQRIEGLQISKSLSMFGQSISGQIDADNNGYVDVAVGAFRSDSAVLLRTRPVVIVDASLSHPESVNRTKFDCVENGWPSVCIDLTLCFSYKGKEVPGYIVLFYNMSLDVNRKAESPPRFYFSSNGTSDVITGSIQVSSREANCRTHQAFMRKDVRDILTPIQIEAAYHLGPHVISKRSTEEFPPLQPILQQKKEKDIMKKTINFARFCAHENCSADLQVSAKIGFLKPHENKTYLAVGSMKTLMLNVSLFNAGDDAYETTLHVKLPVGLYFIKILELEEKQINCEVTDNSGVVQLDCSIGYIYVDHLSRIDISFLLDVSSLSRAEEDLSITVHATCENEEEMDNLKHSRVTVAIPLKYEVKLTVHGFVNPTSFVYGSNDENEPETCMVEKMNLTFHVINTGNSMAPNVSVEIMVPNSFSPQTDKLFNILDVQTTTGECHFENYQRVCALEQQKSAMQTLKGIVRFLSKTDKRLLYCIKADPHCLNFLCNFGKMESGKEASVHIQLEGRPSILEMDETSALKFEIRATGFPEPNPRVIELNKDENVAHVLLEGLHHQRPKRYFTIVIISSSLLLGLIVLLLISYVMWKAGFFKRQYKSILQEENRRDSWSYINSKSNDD
# T2 sequence (P05556 21-798): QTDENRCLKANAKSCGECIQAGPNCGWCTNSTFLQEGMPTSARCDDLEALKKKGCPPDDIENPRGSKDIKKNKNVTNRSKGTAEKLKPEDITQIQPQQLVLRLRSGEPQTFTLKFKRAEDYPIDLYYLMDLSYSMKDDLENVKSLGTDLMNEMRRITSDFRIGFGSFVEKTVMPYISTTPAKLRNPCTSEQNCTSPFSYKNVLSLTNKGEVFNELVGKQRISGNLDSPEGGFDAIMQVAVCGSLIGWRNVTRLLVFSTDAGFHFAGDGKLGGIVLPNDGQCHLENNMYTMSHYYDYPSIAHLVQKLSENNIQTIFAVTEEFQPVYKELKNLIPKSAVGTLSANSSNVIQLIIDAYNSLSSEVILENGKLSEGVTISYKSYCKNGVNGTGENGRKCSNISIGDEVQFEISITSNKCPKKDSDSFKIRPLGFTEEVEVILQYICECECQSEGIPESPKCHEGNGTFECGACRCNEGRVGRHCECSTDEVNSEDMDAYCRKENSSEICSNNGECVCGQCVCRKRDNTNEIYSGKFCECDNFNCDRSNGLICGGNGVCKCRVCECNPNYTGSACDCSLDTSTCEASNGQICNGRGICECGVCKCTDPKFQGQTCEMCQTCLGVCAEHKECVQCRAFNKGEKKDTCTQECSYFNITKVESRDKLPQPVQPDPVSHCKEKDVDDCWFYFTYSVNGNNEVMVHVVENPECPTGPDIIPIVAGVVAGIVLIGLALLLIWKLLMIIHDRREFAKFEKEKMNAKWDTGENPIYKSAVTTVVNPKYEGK
# T1 sequence (P13612 34-1032): as the sequence (P13612 34-1032) above
# T1 sequence (P05556 21-798): as the sequence (P05556 21-798) above
smiles,measurement,setting,value
O=C(O)/C=C/C(=O)Nc1cccc(C(=O)N[C@@H](Cc2ccc(NC(=O)c3c(Cl)cccc3Cl)cc2)C(=O)O)c1 [Example 37],IC50,α4β1 integrin,5000 to 10000 nM
same,IC50,α4β1,500 to 1000 nM
COCCC(=O)NC1(C(=O)N[C@@H](Cc2ccc(NC(=O)c3c(Cl)cccc3Cl)cc2)C(=O)O)CCCCC1 [Example 51],IC50,α4β1 integrin,800 to 5000 nM
same,IC50,α4β1,≤ 80 nM
O=C(NC1CCCCC1C(=O)NC(Cc1ccc(NC(=O)c2c(Cl)cccc2Cl)cc1)C(=O)O)c1ccc([N+](=O)[O-])o1 (centres unmarked) [Example 85],IC50,α4β1 integrin,≤ 800 nM
same,IC50,α4β1,≤ 80 nM
"O=C(C=C1CCC(C(=O)O)CC1)N[C@@H](Cc1ccc(NC(=O)c2c(Cl)cccc2Cl)cc1)C(=O)O (stereo partly drawn) [Example 127, N-[4-Carboxy-1-cyclohexylideneacetyl]-4-[(2,6-dichlorobenzoyl)amino]-L-phenylalanine]",IC50,α4β1 integrin,800 to 5000 nM
same,IC50,α4β1,80 to 500 nM
O=C(Nc1ccc(CC(NC(=O)C2CCCCC2NC(=O)C2CCCO2)C(=O)O)cc1)c1c(Cl)cccc1Cl (centres unmarked) [Example 86],IC50,α4β1 integrin,≤ 800 nM
same,IC50,α4β1,≤ 80 nM
"CC(=O)[C@@H]1C[C@H](C(=O)N[C@@H](Cc2ccc(NC(=O)c3c(Cl)cccc3Cl)cc2)C(=O)O)C1(C)C [Example 97, (1S-cis)-N-[(3-Acetyl-2,2-dimethylcyclobutyl)carbonyl]-4-[(2,6-dichlorobenzoyl)amino)-L-phenylalanine]",IC50,α4β1 integrin,≤ 800 nM
same,IC50,α4β1,≤ 80 nM
O=C(NC1(C(=O)N[C@@H](Cc2ccc(NC(=O)c3c(Cl)cccc3Cl)cc2)C(=O)O)CCCCC1)c1cccnc1 [Example 61],IC50,α4β1 integrin,≤ 800 nM
same,IC50,α4β1,80 to 500 nM
O=C(Nc1ccc(CC(NC(=O)C2CCCCC2NC(=O)C2CCOC2)C(=O)O)cc1)c1c(Cl)cccc1Cl (centres unmarked) [Example 87],IC50,α4β1 integrin,≤ 800 nM
same,IC50,α4β1,80 to 500 nM
"CC(=O)[C@@H]1C[C@H](CC(=O)N[C@@H](Cc2ccc(NC(=O)c3c(Cl)cccc3Cl)cc2)C(=O)O)C1(C)C [Example 91, (1R-cis)-N-[(3-Acetyl-2,2-dimethylcyclobutyl)acetyl]-4-[(2,6-dichlorobenzoyl)amino]-L-phenylalanine]",IC50,α4β1 integrin,800 to 5000 nM
same,IC50,α4β1,500 to 1000 nM
CC(=O)c1cccc(OC(C)(C)C(=O)N[C@@H](Cc2ccc(NC(=O)c3c(Cl)cccc3Cl)cc2)C(=O)O)c1 [Example 19],IC50,α4β1 integrin,800 to 5000 nM
same,IC50,α4β1,500 to 1000 nM
"CC1(C)CC(C(=O)O)CC/C1=C\C(=O)N[C@@H](Cc1ccc(NC(=O)c2c(Cl)cccc2Cl)cc1)C(=O)O (stereo partly drawn) [Example 128, N-[(1E)-4-Carboxy-2,2-dimethyl-1-cyclohexylideneacetyl]-4-[(2,6-dichlorobenzoyl)amino]-L-phenylalanine]",IC50,α4β1 integrin,800 to 5000 nM
same,IC50,α4β1,80 to 500 nM
"CC1(C)[C@@H](C(=O)O)C[C@@H]1C(=O)N[C@@H](Cc1ccc(OCc2c(Cl)cccc2Cl)cc1)C(=O)O [Example 94, (1S-trans)-N-[(3-Carboxy-2,2-dimethylcyclobutyl)carbonyl]-4-[(2,6-dichlorophenyl)methoxy]-L-phenylalanine]",IC50,α4β1 integrin,≤ 800 nM
same,IC50,α4β1,80 to 500 nM
"CC(=O)[C@@H]1C[C@H](C(=O)N[C@@H](Cc2ccc(NC(=O)c3cccnc3Cl)cc2)C(=O)O)C1(C)C [Example 105, (1S-cis)-N-[(3-Acetyl-2,2-dimethylcyclobutyl)carbonyl]-4-[[(2-chloro-3-pyridinyl)carbonyl]amino]-L-phenylalanine]",IC50,α4β1 integrin,800 to 5000 nM
same,IC50,α4β1,80 to 500 nM
O=C(NC1(C(=O)N[C@@H](Cc2ccc(NC(=O)c3c(Cl)cccc3Cl)cc2)C(=O)O)CC2CCC1C2)c1cccnc1 (some centres unmarked) [Example 70],IC50,α4β1 integrin,800 to 5000 nM
same,IC50,α4β1,80 to 500 nM
O=C(NC1(C(=O)N[C@@H](Cc2ccc(NC(=O)c3c(Cl)cccc3Cl)cc2)C(=O)O)CC2CCC1C2)c1ccc([N+](=O)[O-])o1 (some centres unmarked) [Example 76],IC50,α4β1 integrin,800 to 5000 nM
same,IC50,α4β1,80 to 500 nM
"O=C(Nc1ccc(C[C@H](NC(=S)N2CCCC(C(=O)O)C2)C(=O)O)cc1)c1c(Cl)cccc1Cl (stereo partly drawn) [Example 117, 1-[[[(1S)-1-carboxy-2-[4-[(2,6-dichlorobenzoyl)amino]phenyl]ethyl]amino]thiocarbonyl]-3-piperidinecarboxylic acid]",IC50,α4β1 integrin,≤ 800 nM
same,IC50,α4β1,80 to 500 nM
O=C(NC1CCCCC1C(=O)NC(Cc1ccc(NC(=O)c2c(Cl)cccc2Cl)cc1)C(=O)O)c1cccnc1 (centres unmarked) [Example 79],IC50,α4β1 integrin,800 to 5000 nM
same,IC50,α4β1,80 to 500 nM
O=C(Nc1ccc(C[C@H](NC(=O)C2(NC(=O)C3CCCO3)CCCCC2)C(=O)O)cc1)c1c(Cl)cccc1Cl (some centres unmarked) [Example 68],IC50,α4β1 integrin,≤ 800 nM
same,IC50,α4β1,80 to 500 nM
O=C(NC1CCCCC1C(=O)NC(Cc1ccc(NC(=O)c2c(Cl)cccc2Cl)cc1)C(=O)O)c1cc(C(=O)O)[nH]n1 (centres unmarked) [Example 83],IC50,α4β1 integrin,≤ 800 nM
same,IC50,α4β1,≤ 80 nM
O=C(O)/C=C/C(=O)NC1(C(=O)N[C@@H](Cc2ccc(NC(=O)c3c(Cl)cccc3Cl)cc2)C(=O)O)CCCCC1 [Example 50],IC50,α4β1 integrin,5000 to 10000 nM
same,IC50,α4β1,500 to 1000 nM
"O=C(O)/C=C/c1ccc(C(=O)N[C@@H](Cc2ccc(NC(=O)c3c(Cl)cccc3Cl)cc2)C(=O)O)cc1 [Example 125, N-[[4-[(E)-3-Hydroxy-3-oxo-1-propenyl]phenyl]carbonyl]-4-[(2,6-dichlorobenzoyl)amino] -L-phenylalanine]",IC50,α4β1 integrin,800 to 5000 nM
same,IC50,α4β1,≤ 80 nM
"CC(=O)[C@H]1C[C@@H](CC(=O)N[C@@H](Cc2ccc(NC(=O)c3c(Cl)cccc3Cl)cc2)C(=O)O)C1(C)C [Example 88, (1S-cis)-N-[(3-Acetyl-2,2-dimethylcyclobutyl)acetyl]-4-[(2,6-dichlorobenzoyl)amino]-L-phenylalanine]",IC50,α4β1 integrin,5000 to 10000 nM
same,IC50,α4β1,500 to 1000 nM
O=C(O)/C=C\C(=O)Nc1cccc(C(=O)N[C@@H](Cc2ccc(NC(=O)c3c(Cl)cccc3Cl)cc2)C(=O)O)c1 [Example 36],IC50,α4β1 integrin,800 to 5000 nM
same,IC50,α4β1,500 to 1000 nM
O=C(NC1(C(=O)N[C@@H](Cc2ccc(NC(=O)c3c(Cl)cccc3Cl)cc2)C(=O)O)CCCCC1)c1cc(C(=O)O)[nH]n1 [Example 65],IC50,α4β1 integrin,800 to 5000 nM
same,IC50,α4β1,80 to 500 nM
O=C(Nc1ccc(C[C@H](NC(=O)C2(NC(=O)C3CCCO3)CC3CCC2C3)C(=O)O)cc1)c1c(Cl)cccc1Cl (some centres unmarked) [Example 77],IC50,α4β1 integrin,≤ 800 nM
same,IC50,α4β1,80 to 500 nM
O=C(NC1(C(=O)N[C@@H](Cc2ccc(NC(=O)c3c(Cl)cccc3Cl)cc2)C(=O)O)CCCCC1)c1cc(O)c2ccccc2n1 [Example 64],IC50,α4β1 integrin,800 to 5000 nM
same,IC50,α4β1,80 to 500 nM
O=C(O)c1cccc(C(=O)NC2(C(=O)N[C@@H](Cc3ccc(NC(=O)c4c(Cl)cccc4Cl)cc3)C(=O)O)CCCCC2)c1 [Example 57],IC50,α4β1 integrin,≤ 800 nM
same,IC50,α4β1,80 to 500 nM
"CC1(C)[C@@H](C(=O)O)C[C@H]1C(=O)N[C@@H](Cc1ccc(NC(=O)c2c(Cl)cccc2Cl)cc1)C(=O)O [Example 103, (1R-cis)-N-[(3-Carboxy-2,2-dimethylcyclobutyl)carbonyl]-4-[(2,6-dichlorobenzoyl)amino]-L-phenylalanine]",IC50,α4β1 integrin,≤ 800 nM
same,IC50,α4β1,80 to 500 nM
